Laboratory results as given in paper PMC7093416, “Selective USP7 inhibition elicits cancer cell killing through a p53-dependent mechanism” (Scientific Reports, 2020).

Tested on: panel of 484 cancer cell lines
Experiment: PRISM cancer cell line profiling, 5 days
Type: cell-based
Design: AUC: unit not given beside the values
Protocol: Cancer cell line profiling was performed using the Broad’s PRISM platform. Cell treatment and data analysis were performed as described in Yu et al[42]. Raw Luminex signal was converted to AUC values for each cell line as described. The resulting AUC profile for each compound was modeled against DepMap using the limma package in R[71]. Because hotspot mutation analysis was performed against DepMap, TP53 annotations in Fig. 6c,d are directly from DepMap.

Compound: CN1CCN(CCC(=O)Nc2ccc3c(=O)n(CC4(O)CCN(C(=O)[C@@H](CCCNC(=O)c5ccc6c(Cl)c7c(nc6c5)CCCC7)Cc5ccccc5)CC4)cnc3c2)CC1 [XL177A]
- AUC (HCC1438_LUNG): 0.7615
- AUC (HCC1588_LUNG): 1.23
- AUC (HCC1806_BREAST): 0.9812
- AUC (HCC1937_BREAST): 1.015
- AUC (HCC4006_LUNG): 0.9625
- AUC (HCT15_LARGE_INTESTINE): 1.19
- AUC (HCT116_LARGE_INTESTINE): 0.9421
- AUC (HDQP1_BREAST): 0.9973
- AUC (HEC1A_ENDOMETRIUM): 1.131
- AUC (HEC1B_ENDOMETRIUM): 0.9267
- AUC (HEC6_ENDOMETRIUM): 0.9564
- AUC (HEC59_ENDOMETRIUM): 1.149
- AUC (HEC108_ENDOMETRIUM): 0.8058
- AUC (HEC151_ENDOMETRIUM): 0.7769
- AUC (HEC251_ENDOMETRIUM): 0.792
- AUC (HEC265_ENDOMETRIUM): 0.8327
- AUC (HEP3B217_LIVER): 1.13
- AUC (HEYA8_OVARY): 0.9929
- AUC (HGC27_STOMACH): 1.014
- AUC (HLF_LIVER): 1.111
- AUC (HMC18_BREAST): 0.9153
- AUC (HOS_BONE): 1.0422
- AUC (HPAC_PANCREAS): 1.477
- AUC (HS294T_SKIN): 0.8762
- AUC (HS618T_LUNG): 0.9543
- AUC (HS729_SOFT_TISSUE): 0.9806
- AUC (HS766T_PANCREAS): 0.877
- AUC (HS852T_SKIN): 1.359
- AUC (HS939T_SKIN): 1.069
- AUC (HS944T_SKIN): 1.047
- AUC (HSC2_UPPER_AERODIGESTIVE_TRACT): 0.968
- AUC (HSC3_UPPER_AERODIGESTIVE_TRACT): 0.8381
- AUC (HT29_LARGE_INTESTINE): 1.3
- AUC (HT55_LARGE_INTESTINE): 1.168
- AUC (HT144_SKIN): 1.076
- AUC (HT1080_SOFT_TISSUE): 1.011
- AUC (HT1376_URINARY_TRACT): 1.127
- AUC (HUCCT1_BILIARY_TRACT): 0.9724
- AUC (HUH6_LIVER): 0.8768
- AUC (HUH7_LIVER): 1.027
- AUC (HUH28_BILIARY_TRACT): 1.165
- AUC (HUPT3_PANCREAS): 1.003
- AUC (IALM_LUNG): 0.9313
- AUC (IGR1_SKIN): 0.998
- AUC (IGR37_SKIN): 0.9905
- AUC (IGROV1_OVARY): 0.7266
- AUC (IM95_STOMACH): 0.6846
- AUC (IPC298_SKIN): 0.897
- AUC (ISHIKAWAHERAKLIO02ER_ENDOMETRIUM): 1.0984
- AUC (ISTMES1_PLEURA): 0.9912
- AUC (ISTMES2_PLEURA): 1.073
- AUC (J82_URINARY_TRACT): 1.012
- AUC (JHH1_LIVER): 0.7875
- AUC (JHH4_LIVER): 1.303
- AUC (JHH5_LIVER): 1.313
- AUC (JHH6_LIVER): 1.146
- AUC (JHH7_LIVER): 1.089
- AUC (JHOC5_OVARY): 0.9299
- AUC (JHOM1_OVARY): 1.1
- AUC (JHOS2_OVARY): 1.084
- AUC (JHUEM2_ENDOMETRIUM): 0.6526
- AUC (JIMT1_BREAST): 0.9668
- AUC (JMSU1_URINARY_TRACT): 1.405
- AUC (K029AX_SKIN): 0.9501
- AUC (KALS1_CENTRAL_NERVOUS_SYSTEM): 0.9126
- AUC (KELLY_AUTONOMIC_GANGLIA): 1.086
- AUC (KMBC2_URINARY_TRACT): 0.7761
- AUC (KMRC1_KIDNEY): 1.1591
- AUC (KMRC3_KIDNEY): 1.033
- AUC (KMRC20_KIDNEY): 1.2
- AUC (KNS42_CENTRAL_NERVOUS_SYSTEM): 1.183
- AUC (KNS60_CENTRAL_NERVOUS_SYSTEM): 1.16
- AUC (KNS62_LUNG): 0.8251
- AUC (KNS81_CENTRAL_NERVOUS_SYSTEM): 0.9475
- AUC (KP2_PANCREAS): 1.066
- AUC (KP3_PANCREAS): 1.01
- AUC (KP4_PANCREAS): 0.8954
- AUC (KPL1_BREAST): 0.9211
- AUC (KU1919_URINARY_TRACT): 0.8697
- AUC (KYSE30_OESOPHAGUS): 0.8748
- AUC (KYSE70_OESOPHAGUS): 0.8646
- AUC (KYSE140_OESOPHAGUS): 1.147
- AUC (KYSE150_OESOPHAGUS): 0.9935
- AUC (KYSE180_OESOPHAGUS): 1.01
- AUC (KYSE270_OESOPHAGUS): 0.9741
- AUC (KYSE410_OESOPHAGUS): 1.031
- AUC (KYSE510_OESOPHAGUS): 0.9351
- AUC (KYSE520_OESOPHAGUS): 0.8676
- AUC (L33_PANCREAS): 1.236
- AUC (LC1SQSF_LUNG): 1.124
- AUC (LCLC103H_LUNG): 1.104
- AUC (LI7_LIVER): 1.1644
- AUC (LK2_LUNG): 1.455
- AUC (LMSU_STOMACH): 0.9257
- AUC (LN18_CENTRAL_NERVOUS_SYSTEM): 0.8921
- AUC (LN229_CENTRAL_NERVOUS_SYSTEM): 1.185
- AUC (LNCAPCLONEFGC_PROSTATE): 0.7244
- AUC (LOUNH91_LUNG): 1.175
- AUC (LOVO_LARGE_INTESTINE): 1.153
- AUC (LOXIMVI_SKIN): 0.9286
- AUC (LS180_LARGE_INTESTINE): 0.8962
- AUC (LS411N_LARGE_INTESTINE): 1.328
- AUC (LS513_LARGE_INTESTINE): 1.158
- AUC (LS1034_LARGE_INTESTINE): 1.385
- AUC (LU99_LUNG): 0.9975
- AUC (LUDLU1_LUNG): 1.119
- AUC (LXF289_LUNG): 0.9272
- AUC (MALME3M_SKIN): 0.9568
- AUC (MCAS_OVARY): 0.987
- AUC (MCF7_BREAST): 0.9375
- AUC (MDAMB175VII_BREAST): 1.118
- AUC (MDAMB231_BREAST): 0.9911
- AUC (MDAMB435S_SKIN): 0.9274
- AUC (MDAMB436_BREAST): 0.9312
- AUC (MDAMB468_BREAST): 0.902
- AUC (MELHO_SKIN): 0.9951
- AUC (MELJUSO_SKIN): 0.9827
- AUC (MESSA_SOFT_TISSUE): 0.5444
- AUC (MEWO_SKIN): 0.9674
- AUC (MFE280_ENDOMETRIUM): 1.202
- AUC (MFE296_ENDOMETRIUM): 1.106
- AUC (MFE319_ENDOMETRIUM): 1.097
